Results taken from patent publication US4918062A, “Pharmaceutical compositions for the treatment of cerebral psycho-organic syndromes” (Riace Establishment, priority 1987, dated 1990).

Columns and labels:
[1] = acute toxicity in mice; settings: mouse, in vivo
From the text: (§1) As far as acute toxicity is concerned, the following data are obtained: […]

[2] = acute toxicity in rats; settings: rat, in vivo
From the text: as §1

[3] = acute toxicity in rabbits; settings: rabbit, in vivo
From the text: as §1

[4] = tested on: learning and memory; assay: electroshock test as described by Esseman (learning and memory); type: in vivo; settings: male mice, 100 mg/kg i.p.
Procedure: (§2) The GPE administered i.p. to 20 male mice at the dose of 100 mg/kg subjected to the electroshock test as described by Esseman in Pharmacol. Res. comm.

[5] = tested on: learning and memory; assay: pole-climbing test as described by Cook and Weindley (learning and memory); type: in vivo; settings: male rats, 100 mg/kg i.p.
[6] = tested on: learning and memory; assay: learning and memory tests in laboratory animals (summary statement); type: in vivo
Procedure: as §2

[7] = tested on: senile cerebral alteration, of both involutive and cerebro-vascular insufficiency origin; assay: clinical tests in the treatment of senile cerebral alteration (overall clinical evaluation); type: in vivo, man
Procedure: 20 patients (10 male and 10 female) 59 to 76 years old were treated; the overall clinical evaluation, taking into account the improvement of the neurophysiological and neurological exams carried out, of the psychometric tests and of the used neurological scale (De Renzi E., Nichelli P.: Verbal and non-verbal short-term memory impairment following hemispheric damage, Cortex, 11, 341-354, 1975; Bisiach E. et. al.: Neurologia Clinica, Ricerche di psicologia, Ed. F. Angeli, Milano, 1977; Cafarra P. et al.: Neuropsychological testing during a transient global amnesia episode and its follow-up, Acta Neurol. Scand.

[8] = oral route, read-out: oral dose that did not cause either death or any symptomatology
[9] = case 1, cerebral vasculopathy with mental decline
[10] = overall clinical evaluation, 20 patients, 59 to 76 years old

## NCCOP(=O)(O)OC[C@H](O)CO [GPE, L-α-glycerylphosphorylethanolamine]
[1]; im, intramuscular route
  LD50: > 1500 mg/kg
[1]; [8]
  NOAEL: ≥ 3000 mg/kg
[2]; im, intramuscular route
  LD50: > 1500 mg/kg
[2]; [8]
  NOAEL: ≥ 3000 mg/kg
[3]; im, intramuscular route
  LD50: > 1000 mg/kg
[3]; [8]
  NOAEL: ≥ 3000 mg/kg
[4]
  ability to activate learning and memory in comparison to the untreated animals: significantly shown the ability to activate learning and memory
[5]
  ability to activate learning and memory in comparison to the untreated animals: significantly shown the ability to activate learning and memory
[6]
  response to the learning and memory tests: significantly improve the response to the learning and memory tests
[7]; 20 patients, 59 to 76 years old
  tolerability (overall): always excellent
[7]; [9]
  Evaluation: Activity: good
  Evaluation: Tolerability: very good
[7]; case 2, mental decline in cerebral vasculopathic
  Evaluation: Activity: insufficient
[7]; case 3, cerebral vasculopathy with mental decline
  Evaluation: Activity: very good
[7]; case 4, mental involution with serious cerebral atrophy
  Evaluation: Activity: very good
[7]; case 5, Alzheimer disease
  Evaluation: Activity: moderate
[7]; case 6, cerebral atrophy with extrapiramidal syndrome and decline
  Evaluation: Activity: moderate
[7]; case 8, multifocal dementia
  Evaluation: Activity: good
[7]; case 9, presenile Alzheimer disease
  Evaluation: Activity: good
[7]; case 10, multifocal dementia with incipient cerebral
  Evaluation: Activity: very good
[7]; case 11, cerebral vasculopathy with mental decline
  Evaluation: Activity: very good
[7]; case 12, Alzheimer disease with cerebral atrophy
  Evaluation: Activity: good
[7]; case 13, cerebral vasculopathy with mental decline
  Evaluation: Activity: good
[7]; case 14, vasculopathy prevailing in the vertebro-basilar
  Evaluation: Activity: moderate
[7]; case 15, cerebral vasculopathy with mental decline
  Evaluation: Activity: moderate
[7]; case 16, Alzheimer disease
  Evaluation: Activity: good
[7]; case 17, Alzheimer disease with initial cerebral atrophy
  Evaluation: Activity: very good
[7]; case 18, Alzheimer disease
  Evaluation: Activity: very good
[7]; case 19, cerebral vasculopathy with cerebral atrophy
  Evaluation: Activity: good
[7]; case 20, multifocal dementia
  Evaluation: Activity: good
[7]; man
  influence on neurophysiological parameters, psychometric tests and neurologic scales: ability to influence in a likewise significant way the neurophysiological parameters, the psychometric tests and the used neurologic scales
[7]; [10]
  cases with significantly positive therapeutic effect: 19 cases
  treatments considered to be insufficient: only one
[7]; senile cerebral alteration and related symptomatology
  pharmacological activity in clinical tests: confirmed in clinical tests
